Among the test systems are SF-295 CNS; SF-268 CNS; U251 CNS; UACC-62 melanoma; MALME-3M melanoma; HOP-62 NSCLC.
What all share (assay): NCI tumour cell line growth inhibition, 48 h

Structures are written as SMILES. Several values for one entry are separate records, joined by “and”; a condition that tells them apart may be missing. Identical values can stand only once.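 Results reflect a 48-hour exposure of cells in 96-well plates to compound at five concentrations. The concentration for 50% growth inhibition is given as GI50. TGI denotes the concentration required for complete inhibition of growth.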

For the compound `Cc1cccc(Oc2nccc(-c3c(-c4ccc(F)cc4)ncn3C3CCNCC3)n2)c1C`, the GI50 with SF-295 CNS was 5.56 µM; in the test on SF-268 CNS, 13.3 µM; in the test with U251 CNS it was 7.28 µM; in the test with UACC-62 melanoma, 4.94 µM; in the test on MALME-3M melanoma, 4.68 µM; with HOP-62 NSCLC, 4.84 µM. Also, the TGI in the test with SF-295 CNS was 14 µM; in the test on SF-268 CNS it was greater than 25 µM; in the test with U251 CNS, greater than 22.6 µM; in the test on UACC-62 melanoma it was 9.96 µM; in the test with MALME-3M melanoma it was 9.58 µM; in the test with HOP-62 NSCLC, 9.56 µM.
As for `CS(=O)CCCCCN=C=S` (stereo not drawn), the GI50 in the test on SF-295 CNS is 17.1 µM; in the test on SF-268 CNS, 4.06 µM; with U251 CNS, 4.42 µM; in the test on UACC-62 melanoma, 2.93 µM; in the test with MALME-3M melanoma it was 4.12 µM; in the test with HOP-62 NSCLC, 12.5 µM. The TGI with SF-295 CNS was determined as 31.4 µM; in the test with SF-268 CNS it was 17.4 µM; in the test on U251 CNS it was 15.8 µM; with UACC-62 melanoma, 12.5 µM; in the test with MALME-3M melanoma it was 18.6 µM; with HOP-62 NSCLC, 29.4 µM.
As for `CC(=O)N1CC(Nc2ccc(OC(F)(F)F)cc2)=CC1=O`, the GI50 in the test on SF-295 CNS is 2.86 µM; in the test on SF-268 CNS, 14.4 µM; with U251 CNS, 3.34 µM; with UACC-62 melanoma, 0.821 µM; in the test on MALME-3M melanoma, 61.5 µM; in the test with HOP-62 NSCLC, 3.51 µM. For the same compound, the TGI in the test on SF-295 CNS, in the test with SF-268 CNS, in the test with U251 CNS, in the test on UACC-62 melanoma, in the test with MALME-3M melanoma and in the test with HOP-62 NSCLC was greater than 100 µM each time.
In the case of `CSc1cnn(CCC#N)c(=O)n1`, the TGI in the test with SF-295 CNS, in the test with SF-268 CNS, in the test with U251 CNS, in the test with UACC-62 melanoma, with MALME-3M melanoma and in the test with HOP-62 NSCLC was greater than 100 µM in each case.
For the compound `COc1ccc(NC(=O)n2nc(N)c3ccccc32)cc1OC`, the GI50 in the test on SF-295 CNS is 37.6 µM; with SF-268 CNS it was 49.6 µM; in the test on U251 CNS, 61.7 µM; with UACC-62 melanoma it was 52.3 µM; with MALME-3M melanoma it was greater than 100 µM; in the test on HOP-62 NSCLC it was 75.2 µM. Further, the TGI in the test on SF-295 CNS, in the test with SF-268 CNS, with U251 CNS, in the test with UACC-62 melanoma, in the test with MALME-3M melanoma and in the test on HOP-62 NSCLC was greater than 100 µM throughout.
As to `NS(=O)(=O)c1cc2c(cc1Cl)NC(Cc1ccccc1)NS2(=O)=O` (stereo not drawn), the TGI with SF-295 CNS, in the test on SF-268 CNS, in the test on U251 CNS, in the test on UACC-62 melanoma, in the test on MALME-3M melanoma and in the test on HOP-62 NSCLC was greater than 100 µM throughout.
Consider `CCN(CC)CCCNc1cccc2c(SCc3ccccc3)ccnc12`, for which the GI50 in the test with SF-295 CNS was 1.8 µM; in the test with SF-268 CNS, 1.51 µM; in the test with U251 CNS it was 1.69 µM; with UACC-62 melanoma, 1.74 µM; in the test with MALME-3M melanoma, 2.13 µM; in the test on HOP-62 NSCLC it was 1.61 µM. The TGI in the test on SF-295 CNS was 3.48 µM; with SF-268 CNS it was 3.33 µM; with U251 CNS it was 3.25 µM; with UACC-62 melanoma, 3.37 µM; with MALME-3M melanoma it was 4 µM; with HOP-62 NSCLC it was 3.05 µM.
Regarding `C1CCN(CCC2CCCCN2)CC1` (stereo not drawn), the TGI with SF-295 CNS, in the test with SF-268 CNS, in the test on U251 CNS, in the test with UACC-62 melanoma, in the test on MALME-3M melanoma and in the test on HOP-62 NSCLC was greater than 100 µM each time.
With `CN1CCCNc2c(c(=O)c2=O)NCCCN(C)CCCNc2c(c(=O)c2=O)NCCCN(C)CCCNc2c(c(=O)c2=O)NCCCN(C)CCCNc2c(c(=O)c2=O)NCCCN(C)CCCNc2c(c(=O)c2=O)NCCCN(C)CCCNc2c(c(=O)c2=O)NCCCN(C)CCCNc2c(c(=O)c2=O)NCCC1`, the GI50 is 5.52 µM in the test on SF-295 CNS; 1.82 µM with SF-268 CNS; 2.23 µM in the test on U251 CNS; 2.39 µM in the test with UACC-62 melanoma; 1.11 µM in the test on MALME-3M melanoma; 4.41 µM in the test with HOP-62 NSCLC. The TGI is 12.9 µM in the test on SF-295 CNS; 18.3 µM with SF-268 CNS; greater than 50 µM in the test with U251 CNS; 16.8 µM in the test with UACC-62 melanoma; 3.54 µM in the test with MALME-3M melanoma; 13.8 µM with HOP-62 NSCLC.
With `CC1/C=C/C=C/C=C/C=C/C=C/C=C/C=C/C(O[C@@H]2O[C@H](C)[C@H](O)[C@@H](O)[C@@H]2N)CC(O)C(C(=O)O)C(O)CC(=O)CC(O)CC(O)CC(O)CC(=O)CCCC(=O)CC(=O)OC1C(C)CC(C)C(O)CC(=O)c1ccc(N)cc1` (stereo partly drawn), the GI50 was 0.0692 µM and 0.232 µM in the test on SF-295 CNS; 0.0565 µM and 0.202 µM with SF-268 CNS; 0.0552 µM and 0.204 µM in the test on U251 CNS; 0.0576 µM and 0.203 µM in the test with UACC-62 melanoma; 0.0543 µM and 0.177 µM with MALME-3M melanoma; 0.063 µM and 0.192 µM in the test with HOP-62 NSCLC. The TGI is 0.155 µM and 0.605 µM in the test with SF-295 CNS; 0.102 µM and 0.409 µM with SF-268 CNS; 0.0996 µM and 0.49 µM in the test with U251 CNS; 0.109 µM and 0.458 µM in the test on UACC-62 melanoma; 0.104 µM and 0.365 µM with MALME-3M melanoma; 0.118 µM and 0.402 µM with HOP-62 NSCLC.
For `CCCCCCCC/C=C/CCCCCCCCC1=NCCN1CCO`, the GI50 in the test with SF-295 CNS is 1.93 µM; in the test with SF-268 CNS, 3.66 µM; with U251 CNS it was 1.78 µM; in the test with UACC-62 melanoma, 3.05 µM; with MALME-3M melanoma, 5.08 µM; with HOP-62 NSCLC, 5.29 µM. Besides, the TGI was 4.05 µM with SF-295 CNS; 16.2 µM in the test with SF-268 CNS; 3.67 µM in the test on U251 CNS; 11 µM in the test on UACC-62 melanoma; 17.3 µM with MALME-3M melanoma; 29.4 µM with HOP-62 NSCLC.
With `C=C(C)[C@@H]1CC[C@]2(C)[C@H](C(=O)C=C3[C@@H]4C[C@](C)(C(=O)N5CCN(C)CC5)CC[C@]4(C)CC[C@]32C)[C@@]1(C)CCC#N`, the GI50 is 7.75 µM in the test with SF-295 CNS; 7.26 µM in the test on SF-268 CNS; 6.05 µM in the test on U251 CNS; 6.03 µM in the test on UACC-62 melanoma; 3.94 µM in the test on MALME-3M melanoma; 6.33 µM with HOP-62 NSCLC. Also, the TGI in the test on SF-295 CNS was 15.2 µM; in the test on SF-268 CNS it was 15.2 µM; with U251 CNS, 12.7 µM; in the test on UACC-62 melanoma, 12.5 µM; in the test with MALME-3M melanoma, 10.6 µM; in the test on HOP-62 NSCLC it was 13.3 µM.
For the compound `CCCCCC(O)C1C(=O)OC(C)C(O)/C=C/C=C/C=C/C=C\C=C(\C)C(O)CC(O)CC(O)CC(O)CC(O)CC(O)CC1O` (stereo not drawn), the GI50 with SF-295 CNS, in the test with SF-268 CNS, in the test on U251 CNS, in the test with UACC-62 melanoma, in the test with MALME-3M melanoma and in the test with HOP-62 NSCLC was greater than 100 µM throughout. Besides, the TGI in the test on SF-295 CNS, with SF-268 CNS, in the test on U251 CNS, in the test with UACC-62 melanoma, with MALME-3M melanoma and in the test on HOP-62 NSCLC was greater than 100 µM each time.
On to `C/C(=N\NC(=O)c1ccncc1)c1ccc2ccccc2c1O`, for which the TGI in the test with SF-295 CNS is 20.7 µM; in the test with SF-268 CNS it was 40.8 µM; with U251 CNS, greater than 62.2 µM; in the test on UACC-62 melanoma, 21.6 µM; with MALME-3M melanoma, 43.2 µM; with HOP-62 NSCLC, greater than 72.7 µM.
On to `CC(C)CCOc1ccc(-c2n[nH]c(C(F)(F)F)c2-c2cncc(C#N)c2)c(O)c1`, for which the GI50 in the test with SF-295 CNS is 2.33 µM; in the test with SF-268 CNS, 4.18 µM; with U251 CNS, 2 µM; with UACC-62 melanoma, 1.22 µM; in the test on MALME-3M melanoma it was 1.85 µM; in the test with HOP-62 NSCLC it was 2.61 µM. Besides, the TGI is 6.7 µM in the test on SF-295 CNS; greater than 100 µM in the test on SF-268 CNS; 8.4 µM in the test with U251 CNS; 5.38 µM in the test on UACC-62 melanoma; 6.56 µM in the test with MALME-3M melanoma; 7.65 µM in the test on HOP-62 NSCLC.
Turning to `CC(=O)c1c(C(F)(F)F)n([O-])c2ccc(Cl)cc2[n+]1=O`, the GI50 with SF-295 CNS is 2.23 µM; in the test on SF-268 CNS it was 1.35 µM; in the test with U251 CNS it was 0.772 µM; with UACC-62 melanoma, 0.916 µM; in the test on MALME-3M melanoma it was 1.84 µM; with HOP-62 NSCLC, 0.49 µM. The TGI with SF-295 CNS is 5.92 µM; with SF-268 CNS, 8.78 µM; with U251 CNS, 4.89 µM; in the test with UACC-62 melanoma it was 3.45 µM; with MALME-3M melanoma, 3.73 µM; in the test with HOP-62 NSCLC, 1.86 µM.
For `CN(C)c1ccc(C(=C2C=CC(=[N+](C)C)C=C2)c2ccc(N(C)C)cc2)cc1` (tested in a mixture with another compound), the GI50 with SF-295 CNS was 0.0483 µM; in the test on MALME-3M melanoma it was 0.127 µM; in the test with HOP-62 NSCLC, 0.0446 µM. In addition, the TGI was 0.396 µM with SF-295 CNS; 1.29 µM with SF-268 CNS; 1.34 µM with U251 CNS; 1.24 µM in the test with UACC-62 melanoma; 0.56 µM in the test on MALME-3M melanoma; 1.29 µM in the test on HOP-62 NSCLC.
With `CCSCC(N)C(=O)O` (stereo not drawn), the TGI in the test on SF-295 CNS, with SF-268 CNS, in the test on U251 CNS, with UACC-62 melanoma, in the test on MALME-3M melanoma and in the test with HOP-62 NSCLC was greater than 100 µM in each case.
